Legend:
Assay type in all cases: in vivo
[1] = test system: Spodoptera littoralis (Egyptian cotton leafworm); assay: Spodoptera littoralis (Egyptian cotton leafworm) mortality, sprayed cotton leaf discs; details: foliar, 72 h, 200 ppm spray on cotton leaf discs, L1 larvae, mortality 3 DAT
[2] = test system: Thrips tabaci (Onion thrips); assay: Thrips tabaci (Onion thrips) mortality, sprayed sunflower leaf discs; details: foliar, 168 h, 200 ppm spray on sunflower leaf discs, mixed ages, mortality after 7 days
[3] = test system: Plutella xylostella (Diamond back moth); assay: Plutella xylostella (Diamond back moth) larval mortality, artificial diet in 24-well MTP; details: 144 h, application rate 200 ppm (concentration in well 18 ppm), L2 larvae, larval mortality after 6 days
[4] = test system: Diabrotica balteata (Corn root worm); assay: Diabrotica balteata (Corn root worm) larval mortality, artificial diet in 24-well MTP; details: 120 h, application rate 200 ppm (concentration in well 18 ppm), L2 larvae, larval mortality after 5 days
[5] = test system: Myzus persicae (Green peach aphid); assay: Myzus persicae (Green peach aphid) mortality, sprayed sunflower leaf discs; details: foliar, 144 h, 200 ppm spray on sunflower leaf discs, mixed ages, mortality 6 DAT

Measured: pest or weed control at 200 ppm

O=C(Nc1cccc(C(=O)Nc2c(Br)cc(C(F)(C(F)(F)F)C(F)(F)F)cc2OC(F)F)c1F)c1ccccc1C(F)(F)F [Compound 34]
≥ 80%: [1] | [2] | [3]

O=C(Nc1cccc(C(=O)Nc2c(Br)cc(C(F)(C(F)(F)F)C(F)(F)F)cc2OC(F)F)c1F)c1cc(C(F)(F)F)ccc1F [Compound 42]
≥ 80%: [1] | [2] | [4] | [3]

COc1c(NC(=O)c2ccc(F)c(C(F)(F)F)c2)cccc1C(=O)Nc1c(Br)cc(C(F)(C(F)(F)F)C(F)(F)F)cc1OC(F)F [Compound 52]
≥ 80%: [1] | [5] | [2] | [4] | [3]

O=C(Nc1cccc(C(=O)Nc2c(Cl)cc(C(F)(C(F)(F)F)C(F)(F)F)cc2OC(F)F)c1F)c1cc(Cl)ccc1F [Compound 55]
≥ 80%: [1] | [2] | [4] | [3]

COc1ccccc1C(=O)Nc1cccc(C(=O)Nc2c(Br)cc(C(F)(C(F)(F)F)C(F)(F)F)cc2OC(F)F)c1OC [Compound 58]
≥ 80%: [1] | [2] | [4] | [3]

COc1c(NC(=O)c2ccccc2C(F)(F)F)cccc1C(=O)Nc1c(Br)cc(C(F)(C(F)(F)F)C(F)(F)F)cc1OC(F)F [Compound 63]
≥ 80%: [1] | [5] | [2] | [4] | [3]

O=C(Nc1cccc(C(=O)Nc2c(Cl)cc(C(F)(C(F)(F)F)C(F)(F)F)cc2OC(F)F)c1F)c1ccccc1OC(F)(F)F [Compound 65]
≥ 80%: [1]

COc1c(NC(=O)c2cccc(F)c2F)cccc1C(=O)Nc1c(Br)cc(C(F)(C(F)(F)F)C(F)(F)F)cc1OC(F)F [Compound 69]
≥ 80%: [1] | [5] | [2] | [4] | [3]

O=C(Nc1cccc(C(=O)Nc2c(Cl)cc(C(F)(C(F)(F)F)C(F)(F)F)cc2OC(F)F)c1F)c1ccccc1C(F)(F)F [Compound 72]
≥ 80%: [1] | [3]

COc1c(NC(=O)c2cc(C(F)(F)F)ccc2F)cccc1C(=O)Nc1c(Br)cc(C(F)(C(F)(F)F)C(F)(F)F)cc1OC(F)F [Compound 73]
≥ 80%: [1] | [5]

COc1c(NC(=O)c2ccccc2F)cccc1C(=O)Nc1c(Cl)cc(C(F)(C(F)(F)F)C(F)(F)F)cc1OC(F)F [Compound 75]
≥ 80%: [1] | [2] | [3]

O=C(Nc1cccc(C(=O)Nc2c(Cl)cc(C(F)(C(F)(F)F)C(F)(F)F)cc2OC(F)F)c1F)c1cc(C(F)(F)F)ccc1F [Compound 80]
≥ 80%: [1] | [2] | [4] | [3]

COc1c(NC(=O)c2ccc(C)cc2)cccc1C(=O)Nc1c(Cl)cc(C(F)(C(F)(F)F)C(F)(F)F)cc1OC(F)F [Compound 82]
≥ 80%: [1] | [5] | [2] | [4] | [3]

COc1c(NC(=O)c2cc(Cl)ccc2F)cccc1C(=O)Nc1c(Cl)cc(C(F)(C(F)(F)F)C(F)(F)F)cc1OC(F)F [Compound 85]
≥ 80%: [1]

COc1c(NC(=O)c2ccc(F)c(C(F)(F)F)c2)cccc1C(=O)Nc1c(Cl)cc(C(F)(C(F)(F)F)C(F)(F)F)cc1OC(F)F [Compound 88]
≥ 80%: [1] | [2] | [3]

COc1c(NC(=O)c2ccccc2OC(F)(F)F)cccc1C(=O)Nc1c(Cl)cc(C(F)(C(F)(F)F)C(F)(F)F)cc1OC(F)F [Compound 90]
≥ 80%: [1] | [2] | [4] | [3]

COc1ccccc1C(=O)Nc1cccc(C(=O)Nc2c(Cl)cc(C(F)(C(F)(F)F)C(F)(F)F)cc2OC(F)F)c1OC [Compound 91]
≥ 80%: [1] | [4] | [3]

COc1c(NC(=O)c2cccc(F)c2F)cccc1C(=O)Nc1c(Cl)cc(C(F)(C(F)(F)F)C(F)(F)F)cc1OC(F)F [Compound 96]
≥ 80%: [1] | [5] | [3]

COc1c(NC(=O)c2cc(C(F)(F)F)ccc2F)cccc1C(=O)Nc1c(Cl)cc(C(F)(C(F)(F)F)C(F)(F)F)cc1OC(F)F [Compound 98]
≥ 80%: [1]

CCN(C(=O)c1ccccc1OC(F)(F)F)c1cccc(C(=O)Nc2c(Cl)cc(C(F)(C(F)(F)F)C(F)(F)F)cc2OC(F)F)c1F [Compound 118]
≥ 80%: [1] | [4] | [3]

CCN(C(=O)c1ccccc1C(F)(F)F)c1cccc(C(=O)Nc2c(Cl)cc(C(F)(C(F)(F)F)C(F)(F)F)cc2OC(F)F)c1F [Compound 121]
≥ 80%: [1] | [2] | [4] | [3]

CCN(C(=O)c1ccccc1C)c1cccc(C(=O)Nc2c(Br)cc(C(F)(C(F)(F)F)C(F)(F)F)cc2OC(F)F)c1OC [Compound 130]
≥ 80%: [1] | [4] | [3]

CCN(C(=O)c1ccccc1Cl)c1cccc(C(=O)Nc2c(Br)cc(C(F)(C(F)(F)F)C(F)(F)F)cc2OC(F)F)c1OC [Compound 131]
≥ 80%: [1] | [5] | [2] | [4] | [3]

CCN(C(=O)c1ccc(C)cc1)c1cccc(C(=O)Nc2c(Br)cc(C(F)(C(F)(F)F)C(F)(F)F)cc2OC(F)F)c1OC [Compound 132]
≥ 80%: [1] | [5] | [2] | [4] | [3]

CCN(C(=O)c1cc(Cl)ccc1F)c1cccc(C(=O)Nc2c(Br)cc(C(F)(C(F)(F)F)C(F)(F)F)cc2OC(F)F)c1OC [Compound 134]
≥ 80%: [1] | [2] | [4] | [3]

CCN(C(=O)c1ccccc1OC(F)(F)F)c1cccc(C(=O)Nc2c(Br)cc(C(F)(C(F)(F)F)C(F)(F)F)cc2OC(F)F)c1OC [Compound 136]
≥ 80%: [4]

CCN(C(=O)c1ccccc1C(F)(F)F)c1cccc(C(=O)Nc2c(Br)cc(C(F)(C(F)(F)F)C(F)(F)F)cc2OC(F)F)c1OC [Compound 140]
≥ 80%: [1] | [5] | [2] | [4] | [3]

CCN(C(=O)c1cc(C(F)(F)F)ccc1F)c1cccc(C(=O)Nc2c(Br)cc(C(F)(C(F)(F)F)C(F)(F)F)cc2OC(F)F)c1OC [Compound 144]
≥ 80%: [1] | [2] | [3]

CCN(C(=O)c1ccccc1F)c1cccc(C(=O)Nc2c(Cl)cc(C(F)(C(F)(F)F)C(F)(F)F)cc2OC(F)F)c1OC [Compound 145]
≥ 80%: [1] | [2] | [4] | [3]

CCN(C(=O)c1ccccc1C)c1cccc(C(=O)Nc2c(Cl)cc(C(F)(C(F)(F)F)C(F)(F)F)cc2OC(F)F)c1OC [Compound 146]
≥ 80%: [1] | [4] | [3]

CCN(C(=O)c1ccc([N+](=O)[O-])cc1)c1cccc(C(=O)Nc2c(Cl)cc(C(F)(C(F)(F)F)C(F)(F)F)cc2OC(F)F)c1OC [Compound 148]
≥ 80%: [2] | [4]

CCN(C(=O)c1ccc(F)cc1C)c1cccc(C(=O)Nc2c(Cl)cc(C(F)(C(F)(F)F)C(F)(F)F)cc2OC(F)F)c1OC [Compound 150]
≥ 80%: [1] | [2] | [4] | [3]

CCN(C(=O)c1cc(Cl)ccc1F)c1cccc(C(=O)Nc2c(Cl)cc(C(F)(C(F)(F)F)C(F)(F)F)cc2OC(F)F)c1OC [Compound 151]
≥ 80%: [1] | [2] | [4] | [3]

CCN(C(=O)c1ccccc1OC(F)(F)F)c1cccc(C(=O)Nc2c(Cl)cc(C(F)(C(F)(F)F)C(F)(F)F)cc2OC(F)F)c1OC [Compound 153]
≥ 80%: [2] | [4]

CCN(C(=O)c1ccccc1C(F)(F)F)c1cccc(C(=O)Nc2c(Cl)cc(C(F)(C(F)(F)F)C(F)(F)F)cc2OC(F)F)c1OC [Compound 157]
≥ 80%: [1] | [2] | [4] | [3]

CCN(C(=O)c1ccc(F)c(C(F)(F)F)c1)c1cccc(C(=O)Nc2c(Br)cc(C(F)(C(F)(F)F)C(F)(F)F)cc2OC(F)F)c1OC [Compound 163]
≥ 80%: [2] | [4] | [3]
